Reference: patent US11584746B2, “Inhibitors of EGFR and methods of use thereof” (DANA-FARBER CANCER INSTITUTE, INC., priority 2018, dated 2023)
Where two headings read alike, the source gives them in different places.

Columns and labels:
[1] = system: patients with NSCLC resistant to gefitinib or erlotinib; details: cited from earlier work
[2] = system: EGFR L858R/T790M/C797S Ba/F3 cell line; assay: Ba/F3 cell proliferation (MTS assay), EGFR L858R/T790M/C797S; type: cell-based, murine; details: Mus musculus, BaF3, compound at 1 μM, read-out: Inhibition of proliferation, Activity (% DMSO control)
Description: The selectivity between wild-type EGFR and EGFR containing one or more mutations as described herein can also be measured using cellular proliferation assays where cell proliferation is dependent on kinase activity. For example, murine Ba/F3 cells transfected with a suitable version of wild-type EGFR (such as VIII; containing a WT EGFR kinase domain), or Ba/F3 cells transfected with L858R/T790M, Del/T790M/L718Q, L858R/T790M/L718Q, L858R/T790M/C797S, Del/T790M/C797S, L858R/T790M/I941R, or Exon 19 deletion/T790M can be used. Proliferation assays are performed at a range of inhibitor concentrations (e.g., 10 μM, 3 μM, 1.1 μM, 330 nM, 110 nM, 33 nM, I1 nM, 3 nM, 1 nM) and an EC50 is calculated.
(§1) The EGFR mutant L858R, Del E746_A750, L858R/T790M, DelE746_A750/T790M, L858R/T790M/C797S and Del/T790M/C797S Ba/F3 cells were previously described (Zhou et al., Nature 462, (2009), 1070-1074). All cell lines were maintained in RPMI 1640 (Cellgro; Mediatech Inc., Herndon, Calif.) supplemented with 10% FBS 100 units/mL penicillin, 100 units/mL streptomycin, and 2 mM glutamine. L858R cells were maintained in ACL-4 media (Invitrogen, Carlsbad, Calif.) supplemented with 5% FBS, 100 units/mL penicillin, 100 units/mL streptomycin, and 2 mM glutamine. The EGFR I941R mutation was introduced via site directed mutagenesis using the Quick Change Site-Directed Mutagenesis kit (Stratagene; La Jolla, Calif.) according to the manufacturer's instructions. All constructs were confirmed by DNA sequencing. The constructs were shuttled into the retroviral vector JP1540 using the BD Creator™ System (BD Biosciences). Ba/F3 cells were infected with retrovirus and according to standard protocols, as described previously (Zhou 2009). Stable clones were obtained by selection in puromycin (2 μg/ml).
(§2) Growth and inhibition of growth was assessed by MTS assay and was performed according to previously established methods (Zhou 2009). The MTS assay is a colorimetric method for determining the number of viable cells that is based on the bioreduction of MTS by cells to a formazan product that is soluble in cell culture medium and can be detected spectrophotometrically. Ba/F3 cells of different EGFR genotypes were exposed to treatment and the number of cells used per experiment determined empirically and has been previously established (Zhou 2009). All experimental points were set up in six wells and all experiments were repeated at least three times. […] The curves were fitted using a non-linear regression model with a sigmoidal dose response.

[3] = target: recombinant EGFR T790M/L858R kinase (Homo sapiens (Human), UniProt P00533, L858R/T790M); assay: HTRF-based EGFR biochemical assay
Protocol: EGFR biochemical assays are carried out using a homogeneous time-resolved fluorescence (HTRF) assay. The reaction mixtures contain biotin-Lck-peptide substrate, wild type, or mutant EGFR enzyme in reaction buffer. Enzyme concentrations are adjusted to accommodate varying kinase activity and ATP concentrations. Compounds of the present application are diluted into the assay mixture and IC50 values are determined using 12-point inhibition curves.
EGFR kinase proteins were purified by glutathione-affinity chromatography followed by size-exclusion chromatography after cleavage with TEV or thrombin to remove the GST fusion partner following established procedures. (Yun 2008; Yun 2007).
EGFR biochemical assays were carried out using a homogeneous time-resolved fluorescence (HTRF) assay as described previously. The reaction mixtures contained 1 μM biotin-Lck-peptide substrate, wild type or mutant EGFR enzyme in reaction buffer (50 mM HEPES pH 7.1, 10 mM MgCl2, 0.01% BSA. 1 mM TCEP and 0.1 mM Na3VO4) at a final volume of 10 μL. […] All reactions were carried out at room temperature in white ProxiPlate™ 384-well Plus plates (PerkinElmer) and were quenched with 5 μL of 0.2 M EDTA at 60 min. Five μL per well of the detection reagent containing 2.5 ng PT66K (Cis-bio) and 0.05 μg SAXL (Prozyme) were added, and the plates were then incubated at room temperature for 1 hour and read with an EnVision plate reader.

[4] = system: EGFR T790M/L858R Ba/F3 cell line; assay: Ba/F3 cell proliferation (MTS assay), EGFR T790M/L858R; type: cell-based, murine; details: for inhibition at 1 µM: compound at 1 μM, EGFR T790M/L858R Ba/F3, read-out: Inhibition of proliferation, Activity (% DMSO control)
Protocol: The selectivity between wild-type EGFR and EGFR containing one or more mutations as described herein can also be measured using cellular proliferation assays where cell proliferation is dependent on kinase activity. […] Proliferation assays are performed at a range of inhibitor concentrations (e.g., 10 μM, 3 μM, 1.1 μM, 330 nM, 110 nM, 33 nM, I1 nM, 3 nM, 1 nM) and an EC50 is calculated.
as §1, with “All” for “The EGFR mutant L858R, Del E746_A750, L858R/T790M, DelE746_A750/T790M, L858R/T790M/C797S and Del/T790M/C797S Ba/F3 cells were previously described (Zhou et al., Nature 462, (2009), 1070-1074). All”, “L858R cells were maintained in ACL-4 media (Invitrogen, Carlsbad, Calif.) supplemented with 5% FBS, 100 units/mL penicillin, 100 units/mL streptomycin, and 2 mM glutamine.” left out
as §2, with “Ba/F3 cells of different EGFR genotypes were exposed to treatment and the number of cells used per experiment determined empirically and has been previously established (Zhou 2009).” left out

[5] = Mus musculus, BaF3, read-out: Ba/F3 cellular activity (EC50) T790M/L858R
[6] = read-out: Ba/F3 cellular activity (EC50) T790M/L858R + Cetuximab (1 μg/mL), presence of 1 μg/mL cetuximab

recombinant EGFR T790M/L858R kinase, sequence (P00533 696-1022 T790M/L858R): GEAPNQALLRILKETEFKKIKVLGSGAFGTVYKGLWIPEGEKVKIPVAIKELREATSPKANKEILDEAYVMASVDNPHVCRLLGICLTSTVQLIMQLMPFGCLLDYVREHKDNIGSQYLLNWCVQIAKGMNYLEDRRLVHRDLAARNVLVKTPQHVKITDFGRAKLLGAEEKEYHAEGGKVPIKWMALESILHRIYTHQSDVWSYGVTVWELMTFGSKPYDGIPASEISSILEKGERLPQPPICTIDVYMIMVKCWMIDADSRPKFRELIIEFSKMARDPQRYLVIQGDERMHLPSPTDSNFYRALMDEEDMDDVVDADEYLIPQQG

Compound	IC50 [3]	EC50 [4, 5]	EC50 [4, 6]	RR [1]	inhibition at 1 µM [2]	inhibition at 1 µM ([4]; Mus musculus, BaF3)
CN(C)C/C=C/C(=O)Nc1cc2c(Nc3ccc(F)c(Cl)c3)ncnc2cc1O[C@H]1CCOC1 [Afatinib]	–	–	–	< 10%	–	–
Nc1ccc2c(c1)N(Cc1ccccc1)C(=O)c1cc(-c3ccc4[nH]ccc4c3)ccc1N2 [Compound I-14]	–	≥ 0.75 µM	≥ 0.75 µM	–	–	–
CC(=O)Nc1ccc2c(c1)N(Cc1ccccc1)C(=O)c1cc(-c3ccc4[nH]ccc4c3)ccc1N2 [Compound I-15]	–	≥ 0.75 µM	≥ 0.75 µM	–	–	–
CN1CCC(c2ccc(-c3ccc4c(c3)C(=O)N(Cc3ccccc3)c3cc(F)ccc3N4)cc2)CC1 [Compound I-17]	< 0.25 µM	–	–	–	–	–
O=C1c2cc(-c3ccc(N4CCNCC4)cc3)ccc2Nc2ccc(F)cc2N1Cc1cccc2cc[nH]c12 [Compound I-18]	< 0.25 µM	≥ 0.75 µM	< 0.25 µM	–	–	–
O=C1c2cc(-c3ccc(N4CCNCC4)cc3)ccc2Nc2ccc(F)cc2N1Cc1ccc2cc[nH]c2c1 [Compound I-19]	–	≥ 0.75 µM	≥ 0.75 µM	–	–	–
CN1CCN(c2ccc(Oc3ccc4c(c3)C(=O)N(Cc3ccccc3)c3cc(F)ccc3N4)cc2)CC1 [Compound I-20, 10-benzyl-8-fluoro-2-(4-(4-methylpiperazin-1-yl)phenoxy)-5,10-dihydro-11H-dibenzo[b,e][1,4]diazepin-11-one]	< 0.25 µM	≥ 0.75 µM	0.25 to 0.5 µM	–	–	–
CN1CCC(n2cc(-c3ccc4c(c3)C(=O)N(Cc3cccc(F)c3)c3cc(F)ccc3N4)cn2)CC1 [Compound I-22]	< 0.25 µM	≥ 0.75 µM	≥ 0.75 µM	–	–	–
CN1CCC(n2cc(-c3ccc4c(c3)C(=O)N(Cc3cccc(Cl)c3)c3cc(F)ccc3N4)cn2)CC1 [Compound I-23]	< 0.25 µM	≥ 0.75 µM	≥ 0.75 µM	–	–	–
CN1CCC(n2cc(-c3ccc4c(c3)C(=O)N(Cc3cc(F)cc(F)c3)c3cc(F)ccc3N4)cn2)CC1 [Compound I-24]	< 0.25 µM	≥ 0.75 µM	≥ 0.75 µM	–	–	–
CN1CCC(n2cc(-c3ccc4c(c3)C(=O)N(Cc3cccc5cc[nH]c35)c3cc(F)ccc3N4)cn2)CC1 [Compound I-25]	< 0.25 µM	≥ 0.75 µM	≥ 0.75 µM	–	–	–
O=C1c2cc(Br)ccc2Nc2ccc(F)cc2N1Cc1ccccc1 [I-a]	< 0.25 µM	≥ 0.75 µM	0.25 to 0.5 µM	–	–	–

The next lines start with results.

IC50 [3]	EC50 [4, 5]	EC50 [4, 6]	Compound	RR [1]	inhibition at 1 µM [2]	inhibition at 1 µM ([4]; Mus musculus, BaF3)
< 0.25 µM	≥ 0.75 µM	0.5 to 0.75 µM	O=C1c2cc(-c3ccc(N4CCNCC4)cc3)ccc2Nc2ccc(F)cc2N1Cc1ccccc1 [Compound I-1, 10-Benzyl-8-fluoro-2-(4-(piperazin-1-yl)phenyl)-5,10-dihydro-11H-dibenzo[b,e][1,4]diazepin-11-one]	–	≥ 75%	≥ 75%
< 0.25 µM	≥ 0.75 µM	< 0.25 µM	O=C1c2cc(-c3ccc4[nH]ccc4c3)ccc2Nc2ccc(F)cc2N1Cc1ccccc1 [Compound I-2]	–	≥ 75%	≥ 75%
< 0.25 µM	≥ 0.75 µM	< 0.25 µM	CN1CCC(n2cc(-c3ccc4c(c3)C(=O)N(Cc3ccccc3)c3cc(F)ccc3N4)cn2)CC1 [Compound I-3]	–	≥ 75%	≥ 75%
< 0.25 µM	≥ 0.75 µM	0.25 to 0.5 µM	O=C1c2cc(-c3ccc(-c4cn[nH]c4)cc3)ccc2Nc2ccc(F)cc2N1Cc1ccccc1 [Compound I-4]	–	≥ 75%	≥ 75%
–	≥ 0.75 µM	≥ 0.75 µM	O=C1c2cc(-c3ccc(N4CCNCC4)cc3)ccc2Nc2ccc(F)cc2N1c1ccccc1 [Compound I-5]	–	≥ 75%	≥ 75%
–	≥ 0.75 µM	≥ 0.75 µM	O=C1c2cc(-c3ccc(N4CCNCC4)cc3)ccc2Nc2ccc(F)cc2N1Cc1cccnc1 [Compound I-6]	–	≥ 75%	≥ 75%
< 0.25 µM	≥ 0.75 µM	≥ 0.75 µM	O=C1c2cc(-c3ccc(N4CCNCC4)cc3)ccc2Nc2ccc(F)cc2N1Cc1nccs1 [Compound I-7]	–	≥ 75%	≥ 75%
–	≥ 0.75 µM	≥ 0.75 µM	O=C1c2cc(-c3ccc4[nH]ccc4c3)ccc2Nc2ccc(F)cc2N1c1ccccc1 [Compound I-8]	–	≥ 75%	≥ 75%
–	≥ 0.75 µM	≥ 0.75 µM	O=C1c2cc(-c3ccc4[nH]ccc4c3)ccc2Nc2ccc(F)cc2N1Cc1cccnc1 [Compound I-9]	–	≥ 75%	≥ 75%
–	≥ 0.75 µM	≥ 0.75 µM	O=C1c2cc(-c3ccc4[nH]ccc4c3)ccc2Nc2ccc(F)cc2N1Cc1nccs1 [Compound I-10]	–	≥ 75%	≥ 75%
< 0.25 µM	≥ 0.75 µM	0.25 to 0.5 µM	O=C1c2cc(-c3ccc(N4CCNCC4)cc3)ccc2Nc2ccccc2N1Cc1ccccc1 [Compound I-11]	–	≥ 75%	≥ 75%
–	≥ 0.75 µM	≥ 0.75 µM	O=C1c2cc(-c3ccc(N4CCNCC4)cc3)ccc2Nc2ncc(F)cc2N1Cc1ccccc1 [Compound I-12]	–	–	–
–	≥ 0.75 µM	≥ 0.75 µM	O=C1c2cc(-c3ccc(N4CCNCC4)cc3)ccc2Nc2ccncc2N1Cc1ccccc1 [Compound I-13]	–	–	–
–	0.25 to 0.5 µM	0.25 to 0.5 µM	CCC(=O)Nc1ccc2c(c1)N(Cc1ccccc1)C(=O)c1cc(-c3ccc4[nH]ccc4c3)ccc1N2 [Compound I-16]	–	–	–
